Columns and labels:
male Balb/C mice = assay: preliminary toxicological evaluation following i.p. administration in mice; type: in vivo; conditions: 50 mg/kg i.p.
Procedure: A preliminary toxicological evaluation of the compound was done in 6-8 week old male Balb/C mice. […] Following administration of the test article, animals were observed hr for the first 8 hr post-dosing for clinical signs and twice daily thereafter until termination on Day 7. Body weights were determined on Days 1, 2, 3 and 7. Three mice were sacrificed by exsanguination at 24 hr post dosing or on Day 7, and a gross necropsy was performed in all animals. Particular attention was paid to the abdominal, thoracic and cranial cavities for reporting of any unusual observations.

male Sprague-Dawley rats = assay: preliminary toxicological evaluation following p.o. administration in rats; type: in vivo
Procedure: A preliminary toxicological evaluation of the compound was done in 250-300 g male Sprague-Dawley rats. Animals were randomized into one of three dosing group, i.e. 250, 500 or 1,000 mg/kg administered by oral gavage. Following administration of the test article, animals were observed hourly for the first 8 hr post-dosing for clinical signs and twice daily thereafter until termination on Day 7. Three animals per group were sacrificed by exsanguination under general anesthesia at 24-hr post dosing or on Day 7 and a gross necropsy was performed in all animals. Additionally, all three rats having received the 500 mg/kg dose and scheduled for sacrifice on Day 7 were placed in individual metabolic cages immediately following test article administration, in order to collect feces and urine during 48 hr. Blood samples were collected terminally from each rat for hematology and serum chemistry evaluation.

Sprague-Dawley rats = assay: single dose acute and 7-day range-finding oral toxicity study in rats; type: in vivo
Procedure: Consequently, a single dose acute and 7-day range-finding oral toxicity study in Sprague-Dawley rats was conducted. During the single dose acute phase of the study, the test article was administered as a single dose by oral gavage to groups of 3 male and 3 female Sprague-Dawley rats, each group receiving a higher or lower dose level, based on the reaction of the previous group during the first day of the observation period.
Upon completion of the 7-day treatment period, all animals were euthanized and subjected to a gross necropsy examination (Day 8 study). Clinical signs (ill health, behavioral changes, etc.) were recorded on all surviving animals. Clinical pathology evaluations (hematology, clinical chemistry and coagulation parameters) were performed on all surviving animals (single dose acute & range-finding phases) prior to their scheduled necropsy. Blood samples were collected terminally from the abdominal aorta (while anesthetized with isoflurane).

Beagle dogs [1] = assay: i.v./p.o. cross over study in dogs, toxicological assessment; type: in vivo; conditions: 2 mg/kg i.v. or 10 mg/kg p.o.
Procedure: (§1) Trimebutine 3-thiocarbamoyl-benzenesulfonate was administered as a cross over design once, each dosing separated by at least a 7-day washout period. During this study, assessments included mortality checks, clinical observations, and body weights. Feces and urine samples were collected up to 48 hr post-administration. Blood samples were also collected for pharmacokinetic evaluations on Days 1 and 8 at 10 time points. Pharmacokinetic data are presented in the two following Figures.

[2] = recovery of counter-ion and metabolites in urine and feces of dogs; type: in vivo; conditions: for mean total recovery of the unchanged counter-ion: urine and feces up to 48 hr
Procedure: as §1
After proper preparation of the urine and feces samples, 3-thiocarbamoyl-benzenesulfonate counter-ion and its two potential metabolites (3-cyanobenzenesulfonate and 3-sulfobenzoate) were assessed using a LC/MS/MS method, with analysis by MRM, ESI-. Calibration curves were prepared for each analyte in blank feces homogenate, following the same procedure.

Beagle dogs [3] = assay: MTD determination following p.o. administration in dogs; type: in vivo
Procedure: For MTD determination, the compound was administered once on each occasion by oral gavage, in an incremental fashion to animals, until the maximum tolerated dose is considered to have been reached. This dose was established at 2,000 mg/kg, i.e., the highest dose administered in animals. […] The animal was back to normal activity levels approximately 1 hr post dosing.

[4] = accelerated stability protocol; type: physicochemical; conditions: Polymorph B, 40±2° C., 75±5% RH, six months
Procedure: The long-term stability of Example 20 was assessed using an accelerated stability protocol. For this purpose, samples of Example 20—Polymorph B was placed in borosilicate vials polyethylene plastic bags, sealed in an aluminum bag, and placed in a fiber drum with desiccant. The samples where then subjected to 40±2° C. with 75±5% relative humidity (RH), and stability was monitored at time 0, 1, 2, 3 and 6 months using a standardized HPLC method.

[5] = male rats, single oral dose 250, 500 or 1000 mg/kg

## CCC(COC(=O)c1cc(OC)c(OC)c(OC)c1)(c1ccccc1)N(C)C.NC(=S)c1cccc(S(=O)(=O)O)c1 (stereo not drawn) [Example 20]
Male Balb/C mice
  tolerability: well-tolerated
Male Balb/C mice; 24 hr or Day 7
  macroscopic finding at gross necropsy: no significant macroscopic finding
Male Balb/C mice; 7 days
  clinical signs: no clinical signs were noted
  mortality: no mortality
Male Balb/C mice; Days 1, 2, 3 and 7
  body weights: remained stable
Male Sprague-Dawley rats; male rats, single oral dose
  hematology parameters: No significant changes
  serum biochemistry variations compared to control (e.g., amylase, creatinine): minor, transient and remained within the normal range for the species
Male Sprague-Dawley rats; [5]
  mortality or clinical signs: No mortality or clinical signs were observed
  tolerability: well tolerated
Male Sprague-Dawley rats; rats sacrificed on Day 7, 500 or 1000 mg/kg p.o.
  necropsy findings: pale and/or enlarged lungs in a few animals
Sprague-Dawley rats; male and female rats, once daily oral gavage, 7 days
  dose well tolerated over 7 days without significant clinical signs of toxicity: 1,000 mg/kg
Sprague-Dawley rats; male and female rats, single oral dose up to 2,000 mg/kg
  death and clinical signs of toxicity: no death and no significant clinical signs of toxicity
Sprague-Dawley rats; male and female rats, single oral gavage
  single dose well-tolerated: up to 2,000 mg/kg
Sprague-Dawley rats; rats, 2,000 mg/kg once daily p.o., deaths after 3 and 5 days
  deaths during 7-day repeat dose regimen: two animals from the 2,000 mg/kg dose group died
Beagle dogs [1]
  bodyweight: no change in bodyweight
  death: no death reported
  toxicity: no indication of any toxicity
[2]; 2 mg/kg i.v.
  additional recovery as metabolite 3-cyanobenzenesulfonate: 4.7%
  recovery associated to 3-sulfobenzoate: 0.6%
  mean total recovery of the unchanged counter-ion: about 72%
[2]; 10 mg/kg p.o.
  3-sulfobenzoate in urine: not detected
  additional recovery as metabolite 3-cyanobenzenesulfonate: 14.5%
  recovery associated to 3-sulfobenzoate: 1.7%
  mean total recovery of the unchanged counter-ion: about 61%
Beagle dogs [3]; 2,000 mg/kg p.o.
  clinical observations, male dog: limited to vomiting a few min following dosing administration
  clinical signs, female dog: Decreased activity level, vomiting, bowel movement, yellowish fluid fecal consistency, vocalization about 15-20 min post-dose, decreased respiration, weak behavior, eyes partially closed, and mild transient tremors
Beagle dogs [3]; 2,000 mg/kg p.o., 30 min post dose compared to pre-dose
  blood pressure, male dog: dropped slightly
Beagle dogs [3]; 2,000 mg/kg p.o., approximately 30 min post dose
  blood pressure, female dog: almost no change in blood pressure
Beagle dogs [3]; 2,000 mg/kg p.o., post dosing
  time back to normal activity levels, female dog: approximately 1 hr
Beagle dogs [3]; Beagle dogs, oral gavage
  doses orally administered well tolerated: up to 2,000 mg/kg
Beagle dogs [3]; Beagle dogs, oral gavage, highest dose administered
  maximum tolerated dose (MTD): 2,000 mg/kg
[4]
  HPLC purity after storage: > 99.7%
  degradation: no degradation had been observed

Source: patent US20150057316A1, “NOVEL SULFONATE-BASED TRIMEBUTINE SALTS” (GICARE PHARMA INC., priority 2012, published 2015)
